pIC50: −log10 of the molar value.

MRGPRX4, sequence (Q96LA9 whole entry): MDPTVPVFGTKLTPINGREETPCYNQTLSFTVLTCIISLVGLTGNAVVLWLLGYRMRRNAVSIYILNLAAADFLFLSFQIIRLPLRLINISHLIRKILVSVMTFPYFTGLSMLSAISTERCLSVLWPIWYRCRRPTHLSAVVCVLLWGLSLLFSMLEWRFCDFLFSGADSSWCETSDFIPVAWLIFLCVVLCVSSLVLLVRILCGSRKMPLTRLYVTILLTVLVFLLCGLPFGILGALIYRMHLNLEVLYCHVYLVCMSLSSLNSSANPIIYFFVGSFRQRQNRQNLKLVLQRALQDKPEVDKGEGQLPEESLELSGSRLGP

This assay has as its target MRGPRX4 (Homo sapiens, UniProt Q96LA9). As to the kind of experiment: MRGPR X4 antagonist activity, IP-One Gq HTRF assay in stably transfected HEK cells (versus agonist bilirubin, deoxycholic acid, conjugated bilirubin, urobilin, obeticholic acid or BAR502). Type of assay: cell-based. Particulars: versus 10 μM Bilirubin agonist; HEK cells expressing human MRGPR X4; read-out: MRGPR4 Antagonist Activity. On the set-up: expressed in transfected cells; host or cells: HEK cells, stably transfected. As to the method: HEK cells stably transfected to express human MRGPR X4 were maintained in an incubator at 37° C. with 5% CO2 and grown in DMEM media with 10% fetal bovine serum (FBS) and 1% each of sodium pyruvate, Glutamax, penicillin/streptomycin, and Geneticin. HEK cells stably transfected to express mouse MRGPR A1 were maintained in the same incubator and grown in DMEM media with 10% FBS, 1% each of sodium pyruvate, Glutamax, penicillin/streptomycin, Geneticin, and 2.2 mg/mL Hygromycin.
Cells were plated in a 384-well assay plate at 20,000 cells per well in 12 μL of Opti-MEM and kept in an incubator overnight. On the day of the assay, compounds solubilized at 10 mM in DMSO were added as a 10-point curve (10 uM final top concentration with 1:3 serial dilutions) using a Tecan D300E digital dispenser. […] Final concentrations of DMSO were kept consistent across the plate. Plates were incubated in the dark for 1 h at 37° C. and then for 30 minutes at room temperature. IP-1 standards and HTRF detection reagents were added according to the IP-One—Gq Kit purchased from Cisbio (part number 62IPAPEJ) and incubated in the dark for 1 h at room temperature. The plate was read on a Molecular Devices SpectraMax iD5 plate reader. The HTRF ratio was calculated from the raw data and graphed using GraphPad Prism to calculate an IC50 value for each compound.
In general terms: In TR-FRET formats the signal depends on donor and acceptor labels being close together.
As for `O=C(O)c1cccc(COc2ccc(OC(F)(F)F)c(Cl)c2)n1` [Compound 1-129], the pIC50 was greater than 7.00.

Take `O=C(O)c1cccc(COc2cc3ccccc3cc2Cl)c1` [Compound 1-130]: the pIC50 was 6.30 to 7.00.

With `O=C(O)c1cccc(COc2ccc3occc3c2)c1` [Compound 1-131], the pIC50 was 6.30 to 7.00.

Consider `O=C(O)c1cccc(COc2ccc(OC(F)(F)F)c(Cl)c2)c1` [Compound 1-132], for which the pIC50 was greater than 7.00.

For the compound `O=C(O)c1cccc(COc2ccc(C(F)(F)F)c(Cl)c2)n1` [Compound 1-133], the pIC50 is greater than 7.00.

Turning to `O=C(O)c1cccc(COc2ccc3sccc3c2)c1` [Compound 1-134], the pIC50 is 6.30 to 7.00.

Take `O=C(O)c1cccc(COc2ccc(OC(F)F)cc2)c1` [Compound 1-135]: the pIC50 is 6.30 to 7.00.

Turning to `O=C(O)c1c(F)ccc(COc2ccc(C(F)(F)F)cc2Cl)c1F` [Compound 1-136], the pIC50 was greater than 7.00.

Take `O=C(O)c1cc(COc2ccc(C(F)(F)F)cc2Cl)ccn1` [Compound 1-137]: the pIC50 was 6.30 to 7.00.

On to `Cc1cc(OCc2cccc(C(=O)O)c2)ccc1C(F)(F)F` [Compound 1-138], for which the pIC50 is less than 5.60.

With `Cc1cc(OCc2cccc(C(=O)O)c2)ccc1OC(F)(F)F` [Compound 1-139], the pIC50 was less than 5.60.

Regarding `O=C(O)c1cccc(COc2cccc(C(F)(F)F)c2)c1` [Compound 1-140], the pIC50 was 5.60 to 6.00.

With `O=C(O)c1cccc(COc2ccccc2C(F)(F)F)c1` [Compound 1-141], the pIC50 was 5.60 to 6.00.

Regarding `O=C(O)c1cccc(COc2cccc(Br)c2Cl)c1` [Compound 1-142], the pIC50 was 6.30 to 7.00.

As for `Cc1ccc(OCc2cccc(C(=O)O)c2)c(Cl)c1Cl` [Compound 1-143], the pIC50 was greater than 7.00.

On to `CC(C)(C)c1ccccc1OCc1cccc(C(=O)O)c1` [Compound 1-144], for which the pIC50 was less than 5.60.

As to `Cc1cc(OCc2cccc(C(=O)O)c2)ccc1C#N` [Compound 1-145], the pIC50 is 6.30 to 7.00.

For the compound `CC(C)c1ccccc1OCc1cccc(C(=O)O)c1` [Compound 1-146], the pIC50 is less than 5.60.

Turning to `COc1ccc(OCc2cccc(C(=O)O)c2)c2ccccc12` [Compound 1-147], the pIC50 was 5.60 to 6.00.

For the compound `O=C(O)c1cccc(COc2ccc(Cl)c(F)c2Cl)c1` [Compound 1-148], the pIC50 was greater than 7.00.

On to `O=C(O)c1cccc(COc2ccc(Cl)c(Cl)c2F)c1` [Compound 1-149], for which the pIC50 is greater than 7.00.

As for `N#CCc1ccccc1OCc1cccc(C(=O)O)c1` [Compound 1-150], the pIC50 is less than 5.60.

For the compound `O=C(O)c1cccc(COc2ccc3c(c2)C(=O)CCC3)c1` [Compound 1-151], the pIC50 was less than 5.60.

With `CNC(=O)c1ccc(OCc2cccc(C(=O)O)c2)cc1` [Compound 1-152], the pIC50 is 5.60 to 6.00.

For the compound `N#Cc1cc(Cl)c(F)cc1OCc1cccc(C(=O)O)c1` [Compound 1-153], the pIC50 was 6.30 to 7.00.

Turning to `Cc1c(OCc2cccc(C(=O)O)c2)ccc2c1OCC2=O` [Compound 1-154], the pIC50 was 6.30 to 7.00.

`O=C(O)c1cc(Cl)cc(COc2ccc(Cl)cc2Cl)c1` [Compound 2-1, 3-chloro-5-((2,4-dichlorophenoxy)methyl)benzoic acid]: the pIC50 was greater than 7.00.

As for `COc1cc(COc2ccc(C(F)(F)F)cc2Cl)cc(C(=O)O)c1` [Compound 2-2], the pIC50 was greater than 7.00.

For `O=C(O)c1cc(Br)cc(COc2ccc(C(F)(F)F)cc2Cl)c1` [Compound 2-3], the pIC50 is greater than 7.00.

`Cc1cc(COc2ccc(Cl)c(Cl)c2Cl)nc(C(=O)O)c1` [Compound 2-4]: the pIC50 is greater than 7.00.

Regarding `N#Cc1cccc(COc2ccc(Cl)cc2Cl)c1` [Compound 3-1], the pIC50 is 6.00 to 6.30.

For `Cc1ccc(OCc2cccc(C(=O)O)c2)c(Cl)c1` [Compound 3-2, 3-((2-chloro-4-methylphenoxy)methyl)benzoic acid], the pIC50 is 6.00 to 6.30.

Consider `O=C(O)c1cccc(COc2cccc(-c3ccccc3)c2)c1` [Compound 3-3], for which the pIC50 is 5.60 to 6.00.

For the compound `O=C(O)c1cccc(COc2cccc(Cl)c2Cl)c1` [Compound 3-4], the pIC50 is 6.30 to 7.00.

In the case of `Cc1cc(Cl)ccc1OCc1cccc(C(=O)O)c1` [Compound 3-5], the pIC50 was 6.30 to 7.00.

For `O=C(O)c1cccc(COc2ccc(Cl)c(Cl)c2)c1` [Compound 3-6], the pIC50 is 6.30 to 7.00.

Regarding `Cc1ccc(OCc2cccc(C(=O)O)c2)c(C)c1` [Compound 3-7], the pIC50 is 5.60 to 6.00.

As for `O=C(O)c1cccc(COCc2ccc(Cl)cc2Cl)c1` [Compound 3-8], the pIC50 was 5.60 to 6.00.

Turning to `O=C(O)c1cccc(COc2cc(Cl)cc(Cl)c2)c1` [Compound 3-9], the pIC50 was 5.60 to 6.00.

`O=C(O)c1ccc(F)c(COc2ccc(Cl)cc2Cl)c1` [Compound 4-2]: the pIC50 is 5.60 to 6.00.

`O=C(O)c1cc(COc2ccc(Cl)cc2Cl)ccc1F` [Compound 4-3]: the pIC50 was 6.30 to 7.00.

`O=C(O)c1cc(F)cc(COc2ccc(Cl)cc2Cl)c1` [Compound 4-4]: the pIC50 was greater than 7.00.

Regarding `COc1cc(COc2ccc(Cl)cc2Cl)cc(C(=O)O)c1` [Compound 4-5], the pIC50 is greater than 7.00.

As to `N#Cc1c(COc2ccc(Cl)cc2Cl)cccc1C(=O)O` [Compound 4-6], the pIC50 is 6.30 to 7.00.

As for `Cc1cc(COc2ccc(Cl)cc2Cl)cc(C(=O)O)c1` [Compound 4-7], the pIC50 is greater than 7.00.

On to `Cc1c(COc2ccc(Cl)cc2Cl)cccc1C(=O)O` [Compound 4-8], for which the pIC50 is 6.30 to 7.00.

For the compound `O=C(O)c1cccc(COc2ccc(Cl)cc2Cl)c1Cl` [Compound 4-9], the pIC50 is greater than 7.00.

Take `Cc1cc(COc2ccc3ccccc3c2)cc(C(=O)O)c1` [Compound 4-12]: the pIC50 was greater than 7.00.

Take `O=C(O)c1cccc(COc2ccc(OC(F)(F)F)cc2Cl)c1F` [Compound 4-13]: the pIC50 is greater than 7.00.

Take `Cc1cc(COc2ccc(OC(F)(F)F)cc2Cl)cc(C(=O)O)c1` [Compound 4-14]: the pIC50 is greater than 7.00.

For the compound `O=C(O)c1cccc(COc2ccc(C(F)(F)F)c(Cl)c2)c1F` [Compound 4-15], the pIC50 was greater than 7.00.

For the compound `O=C(O)c1cc(COc2ccc(C(F)(F)F)c(Cl)c2)cc(C(F)(F)F)c1` [Compound 4-16], the pIC50 is 6.30 to 7.00.

As to `Cc1cc(COc2ccc(C(F)(F)F)c(Cl)c2)cc(C(=O)O)c1` [Compound 4-17], the pIC50 is greater than 7.00.

For `O=C(O)c1nc(COc2ccc(C(F)(F)F)cc2Cl)ccc1F` [Compound 4-18], the pIC50 is greater than 7.00.

As for `O=C(O)c1nc(COc2ccc(C(F)(F)F)c(Cl)c2)ccc1F` [Compound 4-19], the pIC50 was greater than 7.00.

Consider `O=C(O)c1cc(COc2ccc(C(F)(F)F)cc2Cl)cc(C(F)(F)F)c1` [Compound 4-20], for which the pIC50 was 6.30 to 7.00.

On to `O=C(O)c1cccc(COc2ccc3ccccc3c2Cl)c1F` [Compound 4-21], for which the pIC50 is greater than 7.00.

In the case of `O=C(O)c1cccc(COc2ccc3sccc3c2)c1F` [Compound 4-22], the pIC50 is 6.30 to 7.00.

In the case of `Cc1cc(N2CCCC2)ccc1OCc1cccc(C(=O)O)c1F` [Compound 4-23], the pIC50 is 6.00 to 6.30.

As for `O=C(O)c1cccc(COc2ccc(N3CCCC3)cc2Cl)c1F` [Compound 4-24], the pIC50 was 6.00 to 6.30.

For the compound `O=C(O)c1cccc(COc2ccc(-n3cccc3)cc2Cl)c1F` [Compound 4-25], the pIC50 is 6.30 to 7.00.

Take `O=C(O)c1cccc(COc2ccc3sccc3c2Cl)c1F` [Compound 4-26]: the pIC50 is greater than 7.00.

The values above are taken from US11840521B2, “Modulators of Mas-related G-protein receptor X4 and related products and methods” (Escient Pharmaceuticals, Inc., priority 2019, dated 2023).
